According to the supplement of paper PMC10307832:

How the values were obtained:
Experiment in all cases: relative viability (nuclei count vs DMSO), 5 days (fraction); higher = more cells survive
ALW-II-49-7 = compound: Cc1ccc(C(=O)Nc2cccc(C(F)(F)F)c2)cc1Nc1cncc(C(N)=O)c1 [ALW-II-49-7]
Outline: (§1)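 Only plates meeting two conditions passed: control CV below 25% and at least one doubling. Lung cancer cell lines, kept overnight at 37 °C in 1536-well plates, were pinned with five library-drug doses (not always all listed) √10 apart on vehicle-anchored plates and grown 5 days without medium change. A one-step fix, permeabilisation and Hoechst stain preceded 4× imaging and MetaXpress nuclear counting. Viability equals treated-well nuclei divided by vehicle-well nuclei, as the median over plates.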

Dasatinib = compound: Cc1nc(Nc2ncc(C(=O)Nc3c(C)cccc3Cl)s2)cc(N2CCN(CCO)CC2)n1 [Dasatinib]
Outline: as §1

XMD13-2 = compound: C1CC1C(=O)NC2=NNC3=C2C=CC(=C3)C4=CC(=CC=C4)C(=O)NC5CC5 [XMD13-2]
Outline: as §1

| Cell Line | relative viability (ALW-II-49-7; 0.08 µM) | relative viability (ALW-II-49-7; 0.253 µM) | relative viability (ALW-II-49-7; 0.8 µM) | relative viability (ALW-II-49-7; 2.53 µM) | relative viability (ALW-II-49-7; 8 µM) | relative viability (Dasatinib; 0.005 µM) | relative viability (Dasatinib; 0.01581 µM) | relative viability (Dasatinib; 0.05 µM) | relative viability (Dasatinib; 0.075 µM, anchor plate) | relative viability (Dasatinib; 0.1581 µM) | relative viability (Dasatinib; 0.5 µM) | relative viability (XMD13-2; 0.05 µM) | relative viability (XMD13-2; 0.1581 µM) | relative viability (XMD13-2; 0.5 µM) | relative viability (XMD13-2; 1.581 µM) | relative viability (XMD13-2; 5 µM) |
| --- | --- | --- | --- | --- | --- | --- | --- | --- | --- | --- | --- | --- | --- | --- | --- | --- |
| 201T | 0.979 | 1.04 | 0.915 | 1.02 | 0.838 | 0.991 | 0.766 | 0.82 | 0.583 | 0.602 | 0.417 | 1.02 | 1.03 | 1.02 | 1 | 1.02 |
| A549 | 1.08 | 0.966 | 0.891 | 1.02 | 0.947 | 0.989 | 0.85 | 0.914 |  | 0.626 | 0.346 | 1.28 | 1.02 | 1.06 | 0.963 | 0.962 |
| A-427 | 0.962 | 1.02 | 0.952 | 1.01 | 0.93 | 0.983 | 0.889 | 0.811 | 0.698 | 0.634 | 0.623 | 1.12 | 0.921 | 1.01 | 0.904 | 0.744 |
| ABC-1 | 0.938 | 0.999 | 0.923 | 0.973 | 0.941 | 0.905 | 0.862 | 0.785 | 0.641 | 0.564 | 0.654 | 1.02 | 0.873 | 1.01 | 0.745 | 0.472 |
| BEN | 1.04 | 1.01 | 0.728 | 0.825 | 0.902 | 0.776 | 0.552 | 0.487 | 0.322 | 0.423 | 0.376 | 1.07 | 1.01 | 0.992 | 0.874 | 0.933 |
| CAL-12T | 0.952 | 0.96 | 1.03 | 1.02 | 0.928 | 1.02 | 0.998 | 1.12 | 0.486 | 0.795 | 0.416 | 1.05 | 0.961 | 1.06 | 0.887 | 1.02 |
| COR-L23 | 1.05 | 0.969 | 0.904 | 0.892 | 1.02 | 1.01 | 0.852 | 0.923 | 0.477 | 0.614 | 0.519 | 1.21 | 0.993 | 1.11 | 0.969 | 0.986 |
| COR-L 105 | 0.822 | 1.05 | 0.968 | 0.942 | 0.893 | 0.847 | 0.692 | 0.625 | 0.386 | 0.39 | 0.326 | 1.25 | 1.08 | 0.911 | 0.947 | 0.858 |
| Calu-6 | 0.952 | 1.03 | 0.947 | 0.891 | 0.869 | 0.895 | 0.766 | 0.712 |  | 0.627 | 0.554 | 1.05 | 1.08 | 1.07 | 0.99 | 1.04 |
| ChaGo-K-1 | 1.03 | 0.96 | 0.909 | 0.974 | 1.01 | 0.967 | 0.976 | 0.897 | 0.597 | 0.859 | 0.686 | 1.02 | 0.99 | 1.04 | 1.03 | 0.93 |
| EBC-1 | 0.93 | 0.93 | 0.79 | 1 | 0.697 | 1.03 | 0.893 | 0.894 |  | 0.831 | 0.736 | 1.07 | 1.09 | 1 | 0.858 | 0.508 |
| EKVX | 1.06 | 0.953 | 0.968 | 0.91 | 0.974 | 0.932 | 0.879 | 0.807 | 0.605 | 0.68 | 0.176 | 1.08 | 0.915 | 0.969 | 0.923 | 1.07 |
| EMC-BAC-2 | 1.02 | 0.966 | 0.888 | 0.902 | 0.758 | 0.884 | 0.786 | 0.657 | 0.336 | 0.472 | 0.344 | 1.13 | 0.896 | 1.02 | 0.616 | 0.79 |
| EPLC-272H | 1.01 | 0.702 | 0.945 | 0.977 | 0.86 | 0.965 | 0.916 | 0.882 | 0.356 | 0.71 | 0.295 | 1.18 | 0.882 | 1.16 | 0.738 | 0.646 |
| H3255 | 1.12 | 0.999 | 1.04 | 0.904 | 0.808 | 0.971 | 1 | 0.881 | 0.402 | 0.812 | 0.433 | 1.18 | 0.949 | 0.95 | 0.892 | 0.895 |
| HARA | 0.87 | 0.777 | 0.987 | 1.17 | 0.846 | 0.797 | 0.73 | 0.647 | 0.288 | 0.3 | 0.175 | 1.13 | 0.95 | 0.963 | 0.943 | 1.12 |
| HCC-15 | 1.04 | 0.975 | 0.964 | 1.08 | 0.919 | 1.03 | 0.991 | 0.928 | 0.651 | 0.854 | 0.726 | 1.11 | 0.931 | 1.01 | 0.98 | 0.904 |
| HCC-44 | 0.971 | 1.06 | 0.969 | 1.03 | 0.957 | 1.12 | 0.994 | 1.04 |  | 0.961 | 0.533 | 0.988 | 0.996 | 1.05 | 0.978 | 1.03 |
| HCC-78 | 0.972 | 0.938 | 0.842 | 0.934 | 0.933 | 0.551 | 0.764 | 0.721 | 0.408 | 0.658 | 0.314 | 1.06 | 0.934 | 0.981 | 0.908 | 0.962 |
| HCC-366 | 1.03 | 1.05 | 1.09 | 1.04 | 0.855 | 0.805 | 0.748 | 0.608 | 0.682 | 0.728 | 0.52 | 1.08 | 0.918 | 0.991 | 0.979 | 1.03 |
| HCC-827 | 1.02 | 1.03 | 1.02 | 1.02 | 1.02 | 1.05 | 0.926 | 1.04 | 0.324 | 0.953 | 0.126 | 1.06 | 1.01 | 1.02 | 0.973 | 0.944 |
| HOP-62 | 1.1 | 1.03 | 0.941 | 0.82 | 0.786 | 1.06 | 1 | 0.932 | 0.68 | 0.945 | 0.367 | 1.04 | 0.955 | 1.1 | 0.953 | 1.02 |
